Here are results for 2 molecules from patent US20260014204A1, “STEM CELL-DRUG CARRIER COMPRISING MELATONIN-CONTAINING DRUG CARRIER AND STEM CELL AND USES THEREOF” (priority 2024, published 2026).

Each structure is given as a SMILES string.

The assay deals with small intestine epithelial organoids. Put plainly: Flow cytometry of Ly6a-expressing cells, comparison by drug type. In kind it is cell-based. The conditions noted are these: drug applied together with stem cells (summary statement). As to the method: In the art, quercetin is known as a therapeutic agent for inflammatory bowel disease. Accordingly, in Example 4, the revival stem cell induction ability of heterospheroids (hereinafter referred to as ‘Mel-HS’) including melatonin microspheres and 3D mesenchymal stem cells prepared in Example 1-1; and heterospheroids (hereinafter referred to as ‘Q-HS’) including quercetin microspheres and 3D mesenchymal stem cells was compared. The Q-HS was prepared by the same method as Example 1-1, but using quercetin instead of melatonin. Mel-HS was treated in small intestine epithelial organoids and then co-cultured for 48 hours. After culturing, cells expressing a revival stem cell marker Ly6a of the small intestine epithelial organoids were analyzed by flow cytometry. In addition, a Q-HS-treated group was also performed in the same manner as described above. As a control group for the experiment, 2D mesenchymal stem cells (2D) or 3D mesenchymal stem cells (3D) were treated. The flow cytometry results of the Mel-HS-treated group were shown in FIG. 4A, and the flow cytometry results of the Q-HS-treated group were shown in FIG. 4B.
In general terms: A flow cytometer gives signals particle by particle.

For the molecule `COc1ccc2[nH]cc(CCNC(C)=O)c2c1` [melatonin], the “induction of revival stem cells” value is given as “induced revival stem cells”.

On to `O=c1c(O)c(-c2ccc(O)c(O)c2)oc2cc(O)cc(O)c12` [quercetin], for which the “induction of revival stem cells” value is on record as “no significant effect”.
